Publication PMC12677607, “Identification of a Pair of Linear or Cyclic Naturally Inspired Bifunctional Lipopeptide Antibiotics That Overcome Antimicrobial Resistance” (Advanced Science, 2025)
Converted amounts (≈) assume the structure as drawn. Bridge positions count the residues as written; N and C are the ends. Square brackets hold non-standard residues; d marks the D form. Peptide text beside a SMILES is read from it. * marks the point of attachment. Myristoyl = CCCCCCCCCCCCCC(=O)*; Orn = NCCC[C@H](N)C(=O)O; Dab = NCC[C@H](N)C(=O)O; Dap = NC[C@H](N)C(=O)O

How the values were obtained:
[1] = tested on: S. aureus USA300; assay: Membrane depolarization assay (DiSC3(5)); type: cell-based; settings: S. aureus USA300 in PBS, 4 × MIC, n = 2
Description: Bacterial membrane depolarization assay was performed in 384‐well black microtiter plates. Overnight cell cultures of S. aureus USA300 were collected and resuspended in PBS buffer to an OD600 of 0.5. Then, 100 µL of the diluted cell suspension and 50 µL of 20 µM DiSC3(5) dye were added to 300 µL of PBS buffer, which was incubated for 15 min at room temperature in the dark. 50 µL of 2 M KCl was then added and incubated for another 15 min. Fluorescence intensity was determined continually at 2 s intervals (Ex/Em 643/675 nm) using a Tecan spark multimode microplate reader. When the signal stabilized, the appropriate amount of aquicidine L or aquicidine C4 (6.4 mg mL^−1 in DMSO, 4 × MIC) was added. DMSO and daptomycin were used as negative and positive controls, respectively. Data were shown as the relative intensity with respect to the average fluorescence signal prior to the addition of each compound. All assays were performed two independent times (n = 2), and a representative fluorescence recording was presented.

[2] = Acute toxicity assay; type: in vivo, mouse; settings: single dose 250 mg kg^−1 intraperitoneal, three mice, five days
Description: For acute toxicity assessment, three mice were given a single dose of aquicidine L or aquicidine C4 at 250 mg kg^−1 via intraperitoneal injection. Mice were observed twice daily for mortality and morbidity as well as for possible signs of acute toxicity. The experiment was totally monitored for five days.

[3] = tested on: E. coli DH5α; assay: Bactericidal effects / cell lysis in E. coli; type: cell-based; settings: after 12 h at 16× MIC, Figure S123a
[4] = tested on: B. subtilis ATCC 23857; assay: MIC assay (broth micro-dilution); type: cell-based; settings: Table S11; LB broth, 37 °C, 16 h, n = 2
In short: (§1)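 Growth inhibition read visually; MIC taken as lowest inhibitory concentration. LB medium; inocula from overnight cultures diluted 5000-fold, S. aureus 10000-fold. Peptide range 64 to 0.125 µg mL^−1 (2-fold, pre-mix), two independent determinations.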

[5] = tested on: Escherichia coli DH5α; assay: MIC assay (broth micro-dilution); type: cell-based; settings: Table S11; LB broth, 37 °C, 16 h, n = 2
In short: as §1

[6] = tested on: S. aureus USA300; assay: Membrane lysis assay (SYTOX Green); type: cell-based; settings: S. aureus USA300 in PBS, 8 × MIC, n = 2
Description: Bacterial membrane lysis assay was performed in 384‐well black microtiter plates. Overnight cultures of S. aureus USA300 were collected and resuspended in PBS buffer to an OD600 of 0.5. 1 µL of 5 mM SYTOX Green dye was added to 2.5 mL of the diluted cell suspension, which was incubated for 10 min at room temperature in the dark. Fluorescence intensity was detected continually at 2 s intervals (Ex/Em 488/523 nm) using a Tecan spark multimode microplate reader. When the fluorescence signal stabilized, the appropriate amount of each compound (6.4 mg mL^−1 in DMSO, 8 × MIC) was added. DMSO and daptomycin (with 15 mM CaCl2) were used as negative and positive controls, respectively. Data were shown as the relative intensity with respect to the average fluorescence signal prior to the addition of each compound. All membrane lysis assays were performed two independent times (n = 2), and a representative fluorescence recording was presented.

[7] = Isothermal titration calorimetry; type: binding, Escherichia coli O55:B5; settings: Table S12; ITC, 2 mM LPS into 0.2 mM peptide, in H2O, 20 injections
Description: (§2) Calorimetric experiments were performed to evaluate the interaction between CL, PE, PG, or LPS and aquicidine L or aquicidine C4. To determine the affinity between aquicidine L or aquicidine C4 and CL, PE, or PG, both 2 mM CL, PE, or PG and 0.2 mM aquicidine L or aquicidine C4 were dissolved in 20 mM HEPES buffer (pH 7.5). To determine the interaction between LPS and aquicidine L or aquicidine C4, 2 mM LPS and 0.2 mM aquicidine L or aquicidine C4 were dissolved in H2O. Sequential injections of CL, PE, PG, or LPS into the calorimetric cell filled with aquicidine L or aquicidine C4 were repeated 20 times with equilibration intervals of 200 s. Data were collected by using a MicroCal PEAQ‐ITC instrument and calculated for the equilibrium dissociation constant (KD), change of enthalpy (ΔH), and change of entropy […].

[8] = tested on: S. aureus USA300; assay: Membrane component feeding assay; type: cell-based; settings: for inhibition of antibacterial activity by MK, UQ or PC: feeding 2 to 128 µg mL^−1, S. aureus USA300 (PC also E. coli DH5α), Figure S125
Description: The effects of bacterial membrane components on aquicidine L's or aquicidine C4's anti‐bacterial activities were evaluated using E. coli DH5α or S. aureus USA300. […] All experiments were done in triplicate (n = 3) and repeated two independent times (n = 2).

[9] = tested on: Candida albicans ATCC 10231; assay: MIC assay (YPD broth); type: cell-based; settings: Table S11; YPD broth, 30 °C, 16 h, n = 2
Description: (§3) All MIC assays were performed two independent times (n = 2) in 96‐well plates using a broth micro‐dilution method. The lowest concentration of that inhibited visible microbial growth was recorded as the MIC value.
(§4) For fungal strains, overnight cultures were diluted 2000‐fold in YPD broth. 100 µL of diluted cells was mixed with 100 µL of YPD broth containing each peptide ranging from […] 64 to 0.125 µg mL^−1 at 2‐fold serial dilutions.

[10] = Isothermal titration calorimetry; type: binding; settings: Table S12, ITC, 20 mM HEPES pH 7.5, 20 injections
Description: as §2

[11] = tested on: Candida albicans ATCC 64550; type: cell-based; settings: ATCC 64550, 16 h
Description: as §3, §4

Row | SMILES | DiSC3(5) fluorescence (membrane depolarization) [1] | acute toxicity in mouse [2] | cell lysis in E. coli [3] | MIC Bacllussubtilis ATCC 23857 [4] [µg/mL] | MIC Escherichia coli DH5α [5] [µg/mL] | SYTOX fluorescence (cell lysis) [6] | Kd [7] [µM] | inhibition of antibacterial activity by CL and PG ([8]; feeding 2 to 128 µg mL^−1, S. aureus USA300, Figure 5d) | inhibition of antibacterial activity by MK, UQ or PC [8] | MIC Candida albicans ATCC 10231 [9] [µg/mL] | Kd ([10]; 2 mM CL into 0.2 mM peptide) [µM] | Kd ([10]; 2 mM PE into 0.2 mM peptide) [µM] | Kd ([10]; 2 mM PG into 0.2 mM peptide) [µM] | MIC Candida albicans ATCC 64550 [11] [µg/mL]
1 | CCCCCCCCCCCCCC(=O)N[C@@H](CN)C(=O)N[C@H](C(=O)N[C@@H](CC(C)C)C(=O)N[C@H]1COC(=O)[C@H](Cc2ccccc2)NC(=O)[C@H](CC(N)=O)NC(=O)[C@H](CCCN)NC(=O)[C@H]([C@@H](C)CC)NC(=O)[C@H](Cc2ccccc2)NC(=O)[C@H](CN)NC(=O)[C@H](CCN)NC1=O)[C@@H](C)O [synAQU5-C4] (Myristoyl-[Dap]TLS[Dab][Dap]FI[Orn]NF; ester 4-C) | significant increase | no obvious acute toxicities | slightly led to cell lysis | 2 (≈ 1.41 µM) | 8 (≈ 5.63 µM) | significant increase | 1.84 | stronger dose‐dependent inhibition | did not show dose‐dependent inhibition | > 64 | 0.06 | 49.3 | 0.08 | > 64
2 | CCCCCCCCCCCCCC(=O)N[C@@H](CN)C(=O)N[C@H](C(=O)N[C@@H](CC(C)C)C(=O)N[C@@H](CO)C(=O)N[C@@H](CCN)C(=O)N[C@@H](CN)C(=O)N[C@@H](Cc1ccccc1)C(=O)N[C@H](C(=O)N[C@@H](CCCN)C(=O)N[C@@H](CC(N)=O)C(=O)N[C@@H](Cc1ccccc1)C(=O)O)[C@@H](C)CC)[C@@H](C)O [synAQU5-L] (Myristoyl-[Dap]TLS[Dab][Dap]FI[Orn]NF-OH) | not aquicidine L caused a significant increase | no obvious acute toxicities | significantly led to cell lysis | 8 (≈ 5.56 µM) | 2 (≈ 1.39 µM) | not aquicidine L caused a significant increase | 0.29 |  | did not show dose‐dependent inhibition | > 64 | 0.28 | 7.88 | 0.32 | > 64
